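Compound exposure: 48 hours, 5 concentrations, 96-well plates. The concentration for full growth arrest is given as TGI.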
Assays:
Assay in all cases: NCI anticancer screen, dose series, 48 h
SF-539 CNS = system: SF-539 CNS
SR leukemia = system: SR leukemia
NCI-H460 lung = system: NCI-H460 lung
SK-OV-3 ovarian = system: SK-OV-3 ovarian
MDA-MB-231 breast = system: MDA-MB-231 breast
HCT-116 colon = system: HCT-116 colon
HT29 colon = system: HT29 colon
PC-3 prostate = system: PC-3 prostate
CAKI-1 renal = system: CAKI-1 renal
ACHN renal = system: ACHN renal
T-47D breast = system: T-47D breast
A498 renal = system: A498 renal
SF-268 CNS = system: SF-268 CNS
NCI/ADR-RES ovarian = system: NCI/ADR-RES ovarian
HCC-2998 colon = system: HCC-2998 colon
UO-31 renal = system: UO-31 renal
NCI-H522 lung = system: NCI-H522 lung
HS 578T breast = system: HS 578T breast
SW-620 colon = system: SW-620 colon
TK-10 renal = system: TK-10 renal
BT-549 breast = system: BT-549 breast
HL-60(TB) leukemia = system: HL-60(TB) leukemia
MCF7 breast = system: MCF7 breast
M14 melanoma = system: M14 melanoma
CCRF-CEM leukemia = system: CCRF-CEM leukemia
SK-MEL-5 melanoma = system: SK-MEL-5 melanoma
U251 CNS = system: U251 CNS
MDA-N = system: MDA-N
A549 NSCLC = system: A549 NSCLC
SNB-19 CNS = system: SNB-19 CNS
SF-295 CNS = system: SF-295 CNS
786-0 renal = system: 786-0 renal
SK-MEL-2 melanoma = system: SK-MEL-2 melanoma
NCI-H226 lung = system: NCI-H226 lung
UACC-62 melanoma = system: UACC-62 melanoma
COLO 205 colon = system: COLO 205 colon
IGROV1 ovarian = system: IGROV1 ovarian
MALME-3M melanoma = system: MALME-3M melanoma
LOX IMVI melanoma = system: LOX IMVI melanoma
MOLT-4 leukemia = system: MOLT-4 leukemia
MDA-MB-435 = system: MDA-MB-435
HOP-92 NSCLC = system: HOP-92 NSCLC
OVCAR-8 ovarian = system: OVCAR-8 ovarian
SN12C renal = system: SN12C renal
SK-MEL-28 melanoma = system: SK-MEL-28 melanoma
K-562 leukemia = system: K-562 leukemia
KM12 colon = system: KM12 colon
OVCAR-4 ovarian = system: OVCAR-4 ovarian
RPMI-8226 leukemia = system: RPMI-8226 leukemia
DU-145 prostate = system: DU-145 prostate
OVCAR-3 ovarian = system: OVCAR-3 ovarian
EKVX NSCLC = system: EKVX NSCLC
UACC-257 melanoma = system: UACC-257 melanoma
NCI-H23 lung = system: NCI-H23 lung
HCT-15 colon = system: HCT-15 colon
RXF 393 renal = system: RXF 393 renal
SNB-75 CNS = system: SNB-75 CNS
OVCAR-5 ovarian = system: OVCAR-5 ovarian
HOP-62 NSCLC = system: HOP-62 NSCLC

Q: Which TGI (SF-539 CNS) does the source give for `O=C(CC(=O)Nc1ccc(C(=O)O)cc1)Nc1ccc(C(=O)O)cc1` here?
A: > 100 µM

Q: What about the TGI (SR leukemia) of the same compound?
A: > 100 µM

Q: What about the TGI (NCI-H460 lung) of the same compound?
A: > 100 µM

Q: And the TGI (SK-OV-3 ovarian)?
A: > 100 µM

Q: And the TGI (MDA-MB-231 breast)?
A: > 100 µM

Q: And the TGI (HCT-116 colon)?
A: > 100 µM

Q: What about the TGI (HT29 colon) of the same compound?
A: > 100 µM

Q: And the TGI (PC-3 prostate)?
A: > 100 µM

Q: And the TGI (CAKI-1 renal)?
A: > 100 µM

Q: And the TGI (ACHN renal)?
A: > 100 µM

Q: And the TGI (T-47D breast)?
A: > 100 µM

Q: What about the TGI (A498 renal) of the same compound?
A: > 100 µM

Q: And the TGI (SF-268 CNS)?
A: > 100 µM

Q: What about the TGI (NCI/ADR-RES ovarian) of the same compound?
A: > 100 µM

Q: And the TGI (HCC-2998 colon)?
A: > 100 µM

Q: What about the TGI (UO-31 renal) of the same compound?
A: > 100 µM

Q: What about the TGI (NCI-H522 lung) of the same compound?
A: > 100 µM

Q: What about the TGI (HS 578T breast) of the same compound?
A: > 100 µM

Q: And the TGI (SW-620 colon)?
A: > 100 µM

Q: What about the TGI (TK-10 renal) of the same compound?
A: > 100 µM

Q: And the TGI (BT-549 breast)?
A: > 100 µM

Q: And the TGI (HL-60(TB) leukemia)?
A: > 100 µM

Q: What about the TGI (MCF7 breast) of the same compound?
A: > 100 µM

Q: What about the TGI (M14 melanoma) of the same compound?
A: > 100 µM

Q: And the TGI (CCRF-CEM leukemia)?
A: > 100 µM

Q: And the TGI (SK-MEL-5 melanoma)?
A: > 100 µM

Q: And the TGI (U251 CNS)?
A: > 100 µM

Q: What about the TGI (MDA-N) of the same compound?
A: > 100 µM

Q: What about the TGI (A549 NSCLC) of the same compound?
A: > 100 µM

Q: What about the TGI (SNB-19 CNS) of the same compound?
A: > 100 µM

Q: And the TGI (SF-295 CNS)?
A: > 100 µM

Q: What about the TGI (786-0 renal) of the same compound?
A: > 100 µM

Q: What about the TGI (SK-MEL-2 melanoma) of the same compound?
A: 40 µM

Q: And the TGI (NCI-H226 lung)?
A: > 100 µM

Q: And the TGI (UACC-62 melanoma)?
A: > 100 µM

Q: And the TGI (COLO 205 colon)?
A: > 100 µM

Q: What about the TGI (IGROV1 ovarian) of the same compound?
A: > 100 µM

Q: What about the TGI (MALME-3M melanoma) of the same compound?
A: > 100 µM

Q: And the TGI (LOX IMVI melanoma)?
A: > 100 µM

Q: What about the TGI (MOLT-4 leukemia) of the same compound?
A: > 100 µM

Q: And the TGI (MDA-MB-435)?
A: > 100 µM

Q: And the TGI (HOP-92 NSCLC)?
A: > 100 µM

Q: And the TGI (OVCAR-8 ovarian)?
A: > 100 µM

Q: And the TGI (SN12C renal)?
A: > 100 µM

Q: And the TGI (SK-MEL-28 melanoma)?
A: > 100 µM

Q: And the TGI (K-562 leukemia)?
A: > 100 µM

Q: And the TGI (KM12 colon)?
A: > 100 µM

Q: What about the TGI (OVCAR-4 ovarian) of the same compound?
A: > 100 µM

Q: And the TGI (RPMI-8226 leukemia)?
A: > 100 µM

Q: What about the TGI (DU-145 prostate) of the same compound?
A: > 100 µM

Q: And the TGI (OVCAR-3 ovarian)?
A: > 100 µM

Q: What about the TGI (EKVX NSCLC) of the same compound?
A: > 100 µM

Q: And the TGI (UACC-257 melanoma)?
A: > 100 µM

Q: What about the TGI (NCI-H23 lung) of the same compound?
A: > 100 µM

Q: `COc1ccc(-c2c3ccccc3c(-c3ccc(OCCBr)cc3)c3ccccc23)cc1` was tested. Which TGI (SF-539 CNS) did it give?
A: > 100 µM

Q: And the TGI (SR leukemia)?
A: > 100 µM

Q: What about the TGI (NCI-H460 lung) of the same compound?
A: > 100 µM

Q: What about the TGI (SK-OV-3 ovarian) of the same compound?
A: > 100 µM

Q: What about the TGI (MDA-MB-231 breast) of the same compound?
A: > 100 µM

Q: And the TGI (HCT-116 colon)?
A: > 100 µM

Q: What about the TGI (HT29 colon) of the same compound?
A: > 100 µM

Q: And the TGI (PC-3 prostate)?
A: > 100 µM

Q: What about the TGI (CAKI-1 renal) of the same compound?
A: > 100 µM

Q: And the TGI (ACHN renal)?
A: > 100 µM

Q: And the TGI (T-47D breast)?
A: > 100 µM

Q: And the TGI (A498 renal)?
A: > 100 µM

Q: What about the TGI (SF-268 CNS) of the same compound?
A: > 100 µM

Q: What about the TGI (NCI/ADR-RES ovarian) of the same compound?
A: > 100 µM

Q: What about the TGI (HCC-2998 colon) of the same compound?
A: > 100 µM

Q: What about the TGI (UO-31 renal) of the same compound?
A: 1.61 µM

Q: And the TGI (NCI-H522 lung)?
A: > 100 µM

Q: What about the TGI (HS 578T breast) of the same compound?
A: > 100 µM

Q: And the TGI (SW-620 colon)?
A: > 100 µM

Q: And the TGI (TK-10 renal)?
A: > 100 µM

Q: What about the TGI (BT-549 breast) of the same compound?
A: > 100 µM

Q: What about the TGI (HL-60(TB) leukemia) of the same compound?
A: > 100 µM

Q: What about the TGI (MCF7 breast) of the same compound?
A: > 100 µM

Q: What about the TGI (HCT-15 colon) of the same compound?
A: > 100 µM

Q: And the TGI (M14 melanoma)?
A: > 100 µM

Q: And the TGI (CCRF-CEM leukemia)?
A: > 100 µM

Q: What about the TGI (SK-MEL-5 melanoma) of the same compound?
A: > 100 µM

Q: And the TGI (U251 CNS)?
A: > 100 µM

Q: And the TGI (MDA-N)?
A: > 100 µM

Q: What about the TGI (A549 NSCLC) of the same compound?
A: > 100 µM

Q: What about the TGI (SNB-19 CNS) of the same compound?
A: > 100 µM

Q: And the TGI (SF-295 CNS)?
A: > 100 µM

Q: And the TGI (786-0 renal)?
A: > 100 µM

Q: What about the TGI (SK-MEL-2 melanoma) of the same compound?
A: > 100 µM

Q: What about the TGI (NCI-H226 lung) of the same compound?
A: > 100 µM

Q: And the TGI (UACC-62 melanoma)?
A: > 100 µM

Q: And the TGI (COLO 205 colon)?
A: > 100 µM

Q: What about the TGI (IGROV1 ovarian) of the same compound?
A: > 100 µM

Q: What about the TGI (MALME-3M melanoma) of the same compound?
A: > 100 µM

Q: What about the TGI (LOX IMVI melanoma) of the same compound?
A: > 100 µM

Q: What about the TGI (MOLT-4 leukemia) of the same compound?
A: > 100 µM

Q: And the TGI (RXF 393 renal)?
A: > 100 µM

Q: What about the TGI (MDA-MB-435) of the same compound?
A: > 100 µM

Q: And the TGI (OVCAR-8 ovarian)?
A: > 100 µM

Q: What about the TGI (SNB-75 CNS) of the same compound?
A: > 100 µM

Q: And the TGI (OVCAR-5 ovarian)?
A: > 100 µM

Q: What about the TGI (SN12C renal) of the same compound?
A: > 100 µM

Q: What about the TGI (SK-MEL-28 melanoma) of the same compound?
A: > 100 µM

Q: And the TGI (HOP-62 NSCLC)?
A: > 100 µM

Q: What about the TGI (KM12 colon) of the same compound?
A: > 100 µM

Q: What about the TGI (OVCAR-4 ovarian) of the same compound?
A: > 100 µM

Q: What about the TGI (RPMI-8226 leukemia) of the same compound?
A: > 100 µM

Q: What about the TGI (DU-145 prostate) of the same compound?
A: > 100 µM

Q: And the TGI (OVCAR-3 ovarian)?
A: > 100 µM

Q: And the TGI (EKVX NSCLC)?
A: > 100 µM

Q: What about the TGI (UACC-257 melanoma) of the same compound?
A: > 100 µM

Q: And the TGI (NCI-H23 lung)?
A: > 100 µM

Source: PubChem BioAssay (NCI)
